Several values for one entry are separate records, joined by “and”; a condition that tells them apart may be missing. Equal values may be shown once.
What was measured:
[1] = system: TNF-α mRNA expression in AMJ2-C11 cells; assay: TNF-α mRNA expression by RT-PCR in AMJ2-C11 cells; type: cell-based, mouse; details: SR-stimulated 24 h, 40 and 80 μM
Description: (§1) The effect of nicotine or DMPP treatment on AMJ2-C11 cells was tested on TNF-α, IL-10 mRNA expression by RT-PCR. These cytokines are involved in the development of pulmonary inflammatory diseases such as HP, asthma and sarcoidosis (52-55). […] Reference is made to FIG. 3 where results are expressed as a % of expression, 100% being attributed to the LPS alone group. The intensity of the band was obtained by dividing the intensity of the TNF-α band by that of β-actin. […] Reference is made to FIG. 4 where results are expressed as described in FIG. 5.

[2] = system: IL-10 mRNA expression in AMJ2-C11 cells; assay: IL-10 mRNA expression by RT-PCR in AMJ2-C11 cells; type: cell-based, mouse; details: SR-stimulated 24 h, 80 μM
Description: as §1

[3] = system: CD80 expression on AMJ2-C11 cells; assay: B7 (CD80) molecule expression on AMJ2-C11 cells; type: cell-based, mouse; details: 40 μM for 48 h
Description: The effects of nicotine and DMPP on B7 (CD80) molecule expression were tested in vitro. AMJ2-C11 cells (mouse alveolar macrophages, from the ATCC) were incubated with 40 μM nicotine or DMPP and stimulated with LPS (0.1 μg/ml) or SR antigen (50 μg/ml) for 48 hours.

[4] = system: CD86 expression on alveolar macrophages; assay: CD86 expression in SR-stimulated BAL cells of a normal patient; type: cell-based, human
Description: A broncho-alveolar lavage was performed on a normal patient, and alveolar macrophages were isolated.

[5] = system: SR-induced inflammation in mice; assay: Short term SR-induced acute lung inflammation in mice, BAL cells; type: in vivo
Text: (§2) The Intranasal instillation of Saccharopolyspora rectivirgula (SR) antigens, the causative agent for farmer's lung, to mice, induces a prominent inflammatory response in the lung. Neutrophils are the first inflammatory cells recruited at the site of inflammation.

TNF = TNF levels in BAL fluid of SR-instilled mice; type: in vivo; details: DMPP-treated mice, SR instillation
Text: as §2

[6] = system: allergic inflammation of the lungs in ovalbumin-sensitized mice; assay: Ovalbumin-sensitized mouse asthma model, BAL cell counts; type: in vivo, Balb/c mice
Description: Groups of Balb/c mice were sensitized by intra-peritoneal injection of 20 μg OVA protein (chicken egg albumin; Sigma-Aldrich) emulsified in 2 mg aluminum hydroxide in PBS. After 4 weeks, challenge doses of 1.5%/50 μl OVA were administered intranasally. The challenge was performed daily for 3 consecutive days and then the mice assessed for allergic inflammation of the lungs 24 h after the last aerosol exposure. Groups of mice were treated with various concentrations of DMPP during the challenge period. Broncho-alveolar lavage (BAL) was performed and the fluid centrifuged at 400 g to separate cells from liquid.
Ovalbumin-sensitized mice (n=8) were challenged with the allergen and simultaneously treated intra-nasally with increasing concentrations of ASM-002 (0.5 to 4 mg/kg/d) for 3 days. The number of cells recovered by broncho-alveolar lavage was used as a measure of lung inflammation.

[7] = system: lung resistance after metacholine challenge; assay: Airway hyper-reactivity / lung resistance to metacholine in asthmatic mice (FlexiVENT); type: in vivo; details: 0.5 mg/kg intranasal DMPP
Description: Airway hyper-reactivity (AHR) in response to metacholine was measured in anesthetized, tracheotomized, ventilated mice using a computer-controlled ventilator (FlexiVENT™).
Increasing doses of metacholine (0 mg/kg-32.5 mg/kg) were administered through the jugular vein.
Lung response to a broncho-constrictive agent, metacholine, was measured by a Flexi-vent® apparatus. Ovalbumin-sensitized animals were treated intra-nasally with ASM-002 (4 mg/kg) during 3 days and 10 minutes prior to the metacholine challenge and compared to untreated OVA-sensitized animals. A negative control group of un-sensitized animals and a positive control group that received Salbutamol (Ventolin) 10 minutes before the metacholine challenge were also included.

IL-4 mRNA expression = IL-4 mRNA expression induced by a 24 h LPS stimulation; type: cell-based; details: LPS stimulation 24 h, 40 to 160 μM
Description: The effect of agonist treatment on mRNA expression of IL-4, a cytokine that is well known to be involved in the development of asthma, was also tested (53). […] Cells were treated with different doses (40 to 160 μM for both nicotine and DMPP).

blood eosinophils = assay: Blood eosinophil transmigration through an artificial basement membrane (Matrigel coated chemotaxis chamber); type: cell-based; details: purified blood eosinophils, Matrigel
Text: Infiltration of eosinophils and other inflammatory cells into lung tissues is an important feature of asthma and the cause of airway inflammation and hyper-responsiveness. The passage of inflammatory cells from the circulation to the lung involves migration through the vascular endothelium, the basement membrane, and extra-cellular matrix components. Inflammatory cells cross the basement membrane by producing proteinases. In these preliminary in vitro experiments, the effects of various nicotinic agonists on the migration of purified blood eosinophils through an artificial basement membrane (Matrigel® coated chemotaxis chamber) were investigated. […] Results are expressed as a percentage of inhibition (agonists-treated cells) compared to the control condition without the agonists.

[8] = system: collagen 1A mRNA expression by normal human lung fibroblasts; assay: Collagen A1 gene expression by RT-PCR in primary normal lung fibroblasts; type: cell-based; details: primary normal fibroblasts, RT-PCR
Description: Asthma is characterized by airway structural changes, including sub-epithelial collagen deposition, that may be a cause for the chronicity of the disease. An imbalance between collagen synthesis and its degradation by fibroblasts may be involved in this process (56). In preliminary experiments, we investigated the effects of nicotinic agonists on collagen A1 synthesis produced by primary normal fibroblasts. Collagen A1 gene expression was evaluated by RT-PCR.
The results are expressed percentage gene expression in agonists treated cells compared to non-treated cells.

[9] = system: mouse tracheal airway smooth muscle; assay: Isometric study on isolated mouse tracheas pre-contracted with metacholine; details: cumulative doses, metacholine 10^−5
Description: Tracheal rings were mounted isometrically to force transducers in organ baths containing Krebs bicarbonate solution at 37° C. and bubbled with 95% O2-5% CO2, pre-contracted with submaximal concentration of metacholine (10^−5) and cumulative doses of the analogs were added to the baths. Changes of tension are recorded. Results are expressed as a percentage of maximal contraction (FIG. 29).
As described previously, tracheal or bronchial rings were mounted isometrically to force transducers in organ baths containing Krebs bicarbonate solution at 37° C. and bubbled with 95% O2-5% CO2, pre-contracted with submaximal concentration of metacholine cumulative doses of ASM-002 added. Changes of tension are recorded. Results are expressed as a percentage of maximal contraction for mouse (FIG. 34, p=0.002), dog (FIG. 35, p=0.004) and human (FIG. 36)

## C[N+]1(C)CCN(c2ccccc2)CC1 [DMPP, Dimethylphenylpiperazinium]
[1]
  reduction of TNF-α mRNA expression: up to 60%
[2]
  reduction (drop) of IL-10 mRNA expression: 87% and 90%
[3]; LPS (0.1 μg/ml) stimulated, LPS alone 38%
  percentage of expression of CD80: 17%
[3]; SR antigen (50 μg/ml) stimulated, SR alone 35%
  percentage of expression of CD80: 20%
[4]; SR-stimulated BAL cells
  less CD86 expressed than non-treated cells: 50%
[4]; SR-stimulated alveolar macrophages
  expression of CD86 relative to non-treated cells: about half of the expression
[5]; intra-nasal every 6 h, 24 h after SR, DMPP 0.5 mg/kg, nicotine 0.5 mg/kg, epibatidine 2 μg/kg
  effect on SR-induced inflammation (BAL cells): marked inhibitory effect
[5]; number of mice increased to 15
  effect on SR-induced lung inflammation compared to the non-treated group: significant inhibition
TNF
  BALF TNF levels: decreased significantly
[6]; first dose response, all groups (n=8; p<0.05)
  eosinophils and lymphocytes in BAL: significantly reduced
[6]; intra-peritoneal DMPP, 0.5 and 2.0 mg/kg doses, OVA challenged mice
  total cell counts in BAL: significantly reduced
[6]; second dose response, 0.1 and 0.5 mg/kg doses
  eosinophil and lymphocyte counts in BAL: significantly reduced
[6]; second dose response, IP
  most effective dose for the anti-inflammatory effect: 0.5 mg/kg
[7]; metacholine 0-32.5 mg/kg
  % of augmentation of lung resistance compared to asthmatic mice: reduced
[7]; p=0.04, n=6
  PC200 (provocative challenge dose of 200% lung resistance augmentation) compared to asthmatic mice: significantly reduced
IL-4 mRNA expression
  IL-4 mRNA expression: completely blocked
Blood eosinophils
  inhibition of eosinophil transmigration: dose-related inhibition
[8]
  collagen A1 gene expression: inhibits collagen A1 gene expression in a dose-dependent manner
[9]
  relaxation of tracheal smooth muscles pre-contracted with metacholine: dose dependant relaxation
